The text below walks through data of ChEMBL document CHEMBL4613318, “Benzofuran-Based Carboxylic Acids as Carbonic Anhydrase Inhibitors and Antiproliferative Agents against Breast Cancer” (ACS Med Chem Lett, 2020).

In test [1] the test system is MDA-MB-231. Briefly: cells. The following applies: Homo sapiens, MDA-MB-231, 48 h.
The subject of test [2] is MCF7. As to the kind of experiment: Antiproliferative activity against human MCF7 cells assessed as reduction in cell viability incubated for 48 hrs by SRB assay. The test is classed as functional, cell-based. To be noted: MCF7, 48 h.
The target of test [3] is Carbonic anhydrase 12 (Homo sapiens, UniProt O43570). As to the kind of experiment: Inhibition of recombinant human carbonic anhydrase 12 preincubated with enzyme for 15 mins by phenol red dye based stopped flow CO2 hydration assay.
Test [4] deals with Carbonic anhydrase 2 (Homo sapiens, UniProt P00918). Briefly: Inhibition of recombinant human carbonic anhydrase 2 preincubated with enzyme for 15 mins by phenol red dye based stopped flow CO2 hydration assay.
The target in test [5] is Carbonic anhydrase 9 (Homo sapiens, UniProt Q16790).
Description: Inhibition of recombinant human carbonic anhydrase 9 preincubated with enzyme for 15 mins by phenol red dye based stopped flow CO2 hydration assay
Test [6] concerns the target Carbonic anhydrase 1 (Homo sapiens, UniProt P00915). Briefly: Inhibition of recombinant human carbonic anhydrase 1 preincubated with enzyme for 15 mins by phenol red dye based stopped flow CO2 hydration assay.
The species named for test [7] is Homo sapiens. Briefly: Selectivity index, ratio of Ki for recombinant human carbonic anhydrase 1 preincubated with enzyme for 15 mins by phenol red dye based stopped flow CO2 hydration assay to Ki for recombinant human carbonic anhydrase 12 preincubated with enzyme for 15 mins by phenol red dye based stopped flow CO2 hydration assay.
The species entered for test [8] is Homo sapiens. As to the kind of experiment: Selectivity index, ratio of Ki for recombinant human carbonic anhydrase 2 preincubated with enzyme for 15 mins by phenol red dye based stopped flow CO2 hydration assay to Ki for recombinant human carbonic anhydrase 12 preincubated with enzyme for 15 mins by phenol red dye based stopped flow CO2 hydration assay.
The species named for test [9] is Homo sapiens. Briefly: Selectivity index, ratio of Ki for recombinant human carbonic anhydrase 1 preincubated with enzyme for 15 mins by phenol red dye based stopped flow CO2 hydration assay to Ki for recombinant human carbonic anhydrase 9 preincubated with enzyme for 15 mins by phenol red dye based stopped flow CO2 hydration assay.
The species entered for test [10] is Homo sapiens. As to the kind of experiment: Selectivity index, ratio of Ki for recombinant human carbonic anhydrase 2 preincubated with enzyme for 15 mins by phenol red dye based stopped flow CO2 hydration assay to Ki for recombinant human carbonic anhydrase 9 preincubated with enzyme for 15 mins by phenol red dye based stopped flow CO2 hydration assay.

Structures are written as SMILES.

Chain of Carbonic anhydrase 12 (O43570 whole entry): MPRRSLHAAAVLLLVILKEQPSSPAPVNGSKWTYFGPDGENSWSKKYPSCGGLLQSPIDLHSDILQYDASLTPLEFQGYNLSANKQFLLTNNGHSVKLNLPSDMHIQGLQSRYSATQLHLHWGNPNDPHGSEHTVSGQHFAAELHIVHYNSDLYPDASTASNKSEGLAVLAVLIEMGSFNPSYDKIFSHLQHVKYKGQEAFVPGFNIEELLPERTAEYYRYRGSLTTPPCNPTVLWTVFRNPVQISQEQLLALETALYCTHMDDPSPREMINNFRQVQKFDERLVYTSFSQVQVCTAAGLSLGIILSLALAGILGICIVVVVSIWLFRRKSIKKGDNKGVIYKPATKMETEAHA
Chain of Carbonic anhydrase 1 (P00915 whole entry): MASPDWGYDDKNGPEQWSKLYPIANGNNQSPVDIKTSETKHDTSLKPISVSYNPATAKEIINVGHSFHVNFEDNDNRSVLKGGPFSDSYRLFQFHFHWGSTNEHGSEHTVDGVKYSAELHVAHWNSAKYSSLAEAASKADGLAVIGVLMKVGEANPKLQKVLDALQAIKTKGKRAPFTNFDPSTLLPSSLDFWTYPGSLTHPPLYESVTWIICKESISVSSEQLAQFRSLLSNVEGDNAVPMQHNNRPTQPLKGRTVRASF

As for `COc1cccc2c1C(=O)c1c(O)c3c(c(O)c1C2=O)C[C@@](O)(C(=O)CO)C[C@@H]3O[C@H]1C[C@H](N)[C@H](O)[C@H](C)O1` [DOXORUBICIN], the results for the IC50 in test [1] and in test [2] were 2.36 µM and 1.43 µM, respectively.

`O=C(Nc1cccc(C(=O)O)c1)Nc1cc2cc(Br)ccc2o1`: the Ki turned out to be 2.3 µM in test [3], 37 µM in test [4], 0.79 µM in test [5] and 33.2 µM in [6].

For `Cc1c(NC(=O)Nc2ccc(C(=O)O)cc2)oc2ccccc12`, the values for the Ratio Ki in test [7] and in test [8] were 5 and 4, respectively. The Ki in [3] amounted to 0.88 µM; in [4], 3.1 µM; in test [5], 5.1 µM; in test [6], 4.5 µM.

Consider `Cc1c(NC(=O)Nc2ccccc2C(=O)O)oc2ccccc12`, for which the Ratio Ki is over 29 in [7], 2 in [8], over 63 in test [9] and 5 in [10]. Moreover, the Ki was 3.4 µM in test [3], 7.9 µM in [4], 1.6 µM in [5] and over 100 µM in [6].

For `O=C(Nc1cc2cc(Br)ccc2o1)Nc1ccccc1C(=O)O`, the Ratio Ki in [7] was found to be 13; in test [9], 20. Moreover, the Ki in [3] was 8 µM; in [4], 4.1 µM; in test [5] it was 5.1 µM; in test [6], over 100 µM.

With `Cc1c(NC(=O)Nc2cccc(C(=O)O)c2)oc2ccccc12`, the Ki in test [3] is 2.2 µM; in test [4], 10.1 µM; in test [5], 0.91 µM; in test [6], 32.8 µM.

As to `O=C(Nc1ccc(C(=O)O)cc1)Nc1cc2cc(Br)ccc2o1`, the inhibition constant Ki came out at 1.6 µM in [3], 7.2 µM in test [4], 0.56 µM in test [5] and 20.5 µM in test [6].

For the molecule `O=C(O)CNC(=O)c1ccc(NC(=O)Nc2cc3cc(Br)ccc3o2)cc1`, the Ratio Ki was found to be 10 in [7], 7 in [8], 5 in test [9] and 4 in [10]. For the same molecule, the inhibition constant (Ki) was 10.1 µM in test [3], 67.1 µM in test [4], 19 µM in [5] and over 100 µM in test [6].

Consider `Cc1c(NC(=O)Nc2ccc(C(=O)NCC(=O)O)cc2)oc2ccccc12`, for which the values for the Ratio Ki in test [7], in test [8] and in test [9] were 24, 10 and 2, respectively. In addition, the inhibition constant (Ki) in test [3] worked out at 2.7 µM; in [4], 25.8 µM; in test [5], 35.7 µM; in test [6], 64.7 µM.
